Assay results as given in patent publication US20170334891A1, “ENHANCER OF ZESTE HOMOLOG 2 INHIBITORS” (GLAXOSMITHKLINE INTELLECTUAL PROPERTY (NO.2) LIMITED, priority 2014, published 2017).

Molecular target: T1, EZH2 within the PRC2 complex (Homo sapiens, UniProt Q15910)
T1 construct: FLAG; made in house; host or cells: Sf9 cells
Assay: EZH2 methyltransferase scintillation proximity assay (SPA)
Type: biochemical
Conditions: Human PRC2 5 member complex (FLAG-EZH2, EED, SUZ12, RbAp48, AEBP2), 1 nM enzyme, biotinylated histone H3K27 peptide, 3H-SAM, 60 min at room temperature
Experimental: Compounds contained herein were evaluated for their ability to inhibit the methyltransferase activity of EZH2 within the PRC2 complex. Human PRC2 complex was prepared by co-expressing each of the 5 member proteins (FLAG-EZH2, EED, SUZ12, RbAp48, AEBP2) in Sf9 cells followed by co-purification. Enzyme activity was measured in a scintillation proximity assay (SPA) where a tritiated methyl group is transferred from 3H-SAM to a lysine residue on a biotinylated, unmethylated peptide substrate derived from histone H3. The peptides were captured on streptavidin-coated SPA beads and the resulting signal was read on a ViewLux plate reader.
• 1. Prepare 10 mM stock of compounds from solid in 100% DMSO. • 2. Set up an 11-point serial dilution (1:4 dilution, top concentration 10 mM) in 100% DMSO for each test compound in a 384 well plate leaving columns 6 and 18 for DMSO controls. • 3. Dispense 10 nL of compound from the dilution plate into reaction plates (Corning, 384-well polystyrene NBS, Cat#3673).
Prepare the following solutions: • 1. 1× Base Buffer, 50 mM Tris-HCl, pH 8, 2 mM MgCl2: Per 1 L of base buffer, combine 1 M Tris-HCl, pH 8 (50 mL), 1 M MgCl2 (2 mL), and distilled water (948 mL). • 2. 1× Assay Buffer: Per 10 mL of 1× Assay Buffer, combine 1× Base Buffer (9.96 mL), 1 M DTT (40 uL), and 10% Tween-20 (1 uL) to provide a final concentration of 50 mM Tris-HCl, pH 8, 2 mM MgCl2, 4 mM DTT, 0.001% Tween-20. • 3. 2× Enzyme Solution: Per 10 mL of 2× Enzyme Solution, combine 1× Assay Buffer (9.99 mL) and 3.24 uM EZH2 5 member complex (6.17 uL) to provide a final enzyme concentration of 1 nM. • 4. SPA Bead Solution: Per 1 mL of SPA Bead Solution, combine Streptavidin coated SPA beads (PerkinElmer, Cat# RPNQ0261, 40 mg) and 1× Assay Buffer (1 mL) to provide a working concentration of 40 mg/mL. • 5. 2× Substrate Solution: Per 10 mL of 2× Substrate Solution, combine 40 mg/mL SPA Bead Solution (375 uL), 1 mM biotinylated histone H3K27 peptide (200 uL), 12.5 uM 3H-SAM (240 uL; 1 mCi/mL), 1 mM cold SAM (57 uL), and 1× Assay Buffer (9.13 mL) to provide a final concentration of 0.75 mg/mL SPA Bead Solution, 10 uM biotinylated histone H3K27 peptide, 0.15 uM 3H-SAM (˜12 uCi/mL 3H-SAM), and 2.85 uM cold SAM. • 6. 2.67× Quench Solution: Per 10 mL of 2.67× Quench Solution, combine 1× Assay Buffer (9.73 mL) and 10 mM cold SAM (267 uL) to provide a final concentration of 100 uM cold SAM.
• 1. Stamp 10 nL/well of 1000× Compound to test wells (as noted above). • 2. Stamp 10 nL/well of 100% DMSO to columns 6 & 18 (high and low controls, respectively).
• 1. Dispense 5 uL/well of 1× Assay Buffer to column 18 (low control reactions). • 2. Dispense 5 uL/well of 2× Substrate Solution to columns 1-24 (note: substrate solution should be mixed to ensure homogeneous bead suspension before dispensing into matrix reservoir). • 3. Dispense 5 uL/well of 2× Enzyme Solution to columns 1-17, 19-24. • 4. Incubate the reaction for 60 min at room temperature.
• 1. Dispense 6 uL/well of the 2.67× Quench Solution to columns 1-24. • 2. Seal assay plates and spin for ˜1 min at 500 rpm. • 3. Dark adapt plates in the ViewLux instrument for 15-60 min.
• 1. Read the assay plates on the Viewlux Plate Reader utilizing the 613 nm emission filter or clear filter (300 s exposure). Reagent addition can be done manually or with automated liquid handler.
Percent inhibition was calculated relative to the DMSO control for each compound concentration and the resulting values were fit using standard IC50 fitting parameters within the ABASE data fitting software package.
The IC50 values of <10 nM indicate that the activity of compound was approaching the limit of detection in the assay. Repeating the assay run(s) may result in somewhat different IC50 values.

T1 sequence (Q15910 whole entry): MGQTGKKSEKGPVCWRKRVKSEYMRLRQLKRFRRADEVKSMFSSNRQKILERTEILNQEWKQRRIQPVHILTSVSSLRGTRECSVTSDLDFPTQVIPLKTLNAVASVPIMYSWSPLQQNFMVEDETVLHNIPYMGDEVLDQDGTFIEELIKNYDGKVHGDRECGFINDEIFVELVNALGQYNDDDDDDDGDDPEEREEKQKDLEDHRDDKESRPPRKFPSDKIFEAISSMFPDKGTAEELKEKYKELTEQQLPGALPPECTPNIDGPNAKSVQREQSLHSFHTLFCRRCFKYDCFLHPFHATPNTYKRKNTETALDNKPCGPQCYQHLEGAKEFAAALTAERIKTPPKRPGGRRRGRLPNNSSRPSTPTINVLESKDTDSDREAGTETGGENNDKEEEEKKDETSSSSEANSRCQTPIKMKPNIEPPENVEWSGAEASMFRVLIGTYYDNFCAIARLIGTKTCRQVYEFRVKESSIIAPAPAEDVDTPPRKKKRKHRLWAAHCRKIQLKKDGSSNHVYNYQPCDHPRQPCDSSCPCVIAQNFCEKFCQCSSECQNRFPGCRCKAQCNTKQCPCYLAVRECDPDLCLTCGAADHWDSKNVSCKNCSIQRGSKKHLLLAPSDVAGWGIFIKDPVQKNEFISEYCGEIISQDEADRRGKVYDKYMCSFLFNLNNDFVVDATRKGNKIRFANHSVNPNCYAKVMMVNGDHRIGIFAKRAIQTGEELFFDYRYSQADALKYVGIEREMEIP
T1 sequence (O75530 whole entry partner): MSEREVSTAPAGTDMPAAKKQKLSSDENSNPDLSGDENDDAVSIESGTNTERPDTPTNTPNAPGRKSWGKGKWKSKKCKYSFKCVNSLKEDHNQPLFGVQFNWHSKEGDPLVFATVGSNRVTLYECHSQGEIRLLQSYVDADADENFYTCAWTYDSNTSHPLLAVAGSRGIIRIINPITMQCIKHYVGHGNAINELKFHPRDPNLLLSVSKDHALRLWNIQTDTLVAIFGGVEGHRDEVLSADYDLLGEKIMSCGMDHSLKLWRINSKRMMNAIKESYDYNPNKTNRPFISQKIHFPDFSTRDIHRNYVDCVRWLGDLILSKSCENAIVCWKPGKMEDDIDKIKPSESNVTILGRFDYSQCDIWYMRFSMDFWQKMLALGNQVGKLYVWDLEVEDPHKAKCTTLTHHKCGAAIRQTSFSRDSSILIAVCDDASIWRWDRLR
T1 sequence (Q15022 whole entry partner): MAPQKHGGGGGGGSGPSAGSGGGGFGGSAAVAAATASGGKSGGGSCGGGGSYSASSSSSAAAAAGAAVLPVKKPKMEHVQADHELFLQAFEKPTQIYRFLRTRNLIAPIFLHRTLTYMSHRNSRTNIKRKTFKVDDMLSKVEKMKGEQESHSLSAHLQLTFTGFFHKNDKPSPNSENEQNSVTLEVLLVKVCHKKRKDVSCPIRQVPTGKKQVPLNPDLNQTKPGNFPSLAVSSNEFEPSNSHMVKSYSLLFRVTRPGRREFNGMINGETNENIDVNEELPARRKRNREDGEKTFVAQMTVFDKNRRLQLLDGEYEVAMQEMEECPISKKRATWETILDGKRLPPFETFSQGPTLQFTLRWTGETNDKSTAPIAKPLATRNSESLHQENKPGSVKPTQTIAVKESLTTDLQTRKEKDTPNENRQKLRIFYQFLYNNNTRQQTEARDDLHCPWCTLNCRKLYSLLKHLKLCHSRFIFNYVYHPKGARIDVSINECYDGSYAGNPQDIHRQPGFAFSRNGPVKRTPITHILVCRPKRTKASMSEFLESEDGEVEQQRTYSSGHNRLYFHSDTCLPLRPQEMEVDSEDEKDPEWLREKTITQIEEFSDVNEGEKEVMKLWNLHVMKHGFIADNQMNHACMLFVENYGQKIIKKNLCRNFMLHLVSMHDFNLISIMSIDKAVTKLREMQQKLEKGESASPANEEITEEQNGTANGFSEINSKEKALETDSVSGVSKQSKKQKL
T1 sequence (Q09028 whole entry partner): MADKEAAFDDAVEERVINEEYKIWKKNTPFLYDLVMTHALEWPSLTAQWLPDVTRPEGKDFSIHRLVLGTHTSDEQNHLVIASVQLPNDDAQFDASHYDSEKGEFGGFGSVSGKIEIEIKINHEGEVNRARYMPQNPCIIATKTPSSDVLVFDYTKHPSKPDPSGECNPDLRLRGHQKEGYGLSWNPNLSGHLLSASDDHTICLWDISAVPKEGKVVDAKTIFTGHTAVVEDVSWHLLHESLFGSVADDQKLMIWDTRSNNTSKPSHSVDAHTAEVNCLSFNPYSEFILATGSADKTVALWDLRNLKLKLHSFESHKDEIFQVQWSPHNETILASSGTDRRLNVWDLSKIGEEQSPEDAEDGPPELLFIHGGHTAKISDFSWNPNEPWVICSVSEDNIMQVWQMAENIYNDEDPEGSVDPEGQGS
T1 sequence (Q6ZN18 whole entry partner): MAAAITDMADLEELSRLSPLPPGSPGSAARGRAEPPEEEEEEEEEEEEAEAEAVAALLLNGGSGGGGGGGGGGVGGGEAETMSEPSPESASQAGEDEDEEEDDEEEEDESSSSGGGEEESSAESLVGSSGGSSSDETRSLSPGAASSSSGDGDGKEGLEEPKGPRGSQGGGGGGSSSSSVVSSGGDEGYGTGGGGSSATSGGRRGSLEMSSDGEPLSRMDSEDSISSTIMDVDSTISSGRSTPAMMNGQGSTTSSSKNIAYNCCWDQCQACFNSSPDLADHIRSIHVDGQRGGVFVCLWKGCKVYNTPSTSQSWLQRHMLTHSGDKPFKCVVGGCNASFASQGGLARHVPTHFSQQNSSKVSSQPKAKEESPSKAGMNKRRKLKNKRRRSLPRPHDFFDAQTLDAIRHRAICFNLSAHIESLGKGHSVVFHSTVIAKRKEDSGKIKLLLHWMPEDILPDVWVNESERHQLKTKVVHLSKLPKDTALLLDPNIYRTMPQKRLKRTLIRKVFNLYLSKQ

Structure (SMILES) | IC50
CC[C@@H](c1scc(C(=O)NCc2c(C)cc(C)[nH]c2=O)c1C)C1CCN(CC(F)F)CC1 [Example 21, (R)-5-(1-(1-(2,2-Difluoroethyl)piperidin-4-yl)propyl)-N-((4,6-dimethyl-2-oxo-1,2-dihydropyridin-3-yl)methyl)-4-methylthiophene-3-carboxamide] | ≤ 0.01 µM
Cc1cc(C)c(CNC(=O)c2csc([C@H](C)C3CCN(CC(F)F)CC3)c2C)c(=O)[nH]1 [Example 22, (R)-5-(1-(1-(2,2-Difluoroethyl)piperidin-4-yl)ethyl)-N-((4,6-dimethyl-2-oxo-1,2-dihydropyridin-3-yl)methyl)-4-methylthiophene-3-carboxamide] | ≤ 0.01 µM
Cc1cc(C)c(CNC(=O)c2csc([C@H](C)C3CCN(CC(C)(F)F)CC3)c2C)c(=O)[nH]1 [Example 23, (R)-5-(1-(1-(2,2-Difluoropropyl)piperidin-4-yl)ethyl)-N-((4,6-dimethyl-2-oxo-1,2-dihydropyridin-3-yl)methyl)-4-methylthiophene-3-carboxamide] | ≤ 0.01 µM
